From patent publication US11000033B2, “Ketone or oxime compound, and herbicide” (NISSAN CHEMICAL CORPORATION, priority 2014, dated 2021)

Tests used:
Assay type in all cases: in vivo
soybean = experiment: Test Example 5: effect on crop by foliage application, plastic box (symbol d); conditions: 320 g/ha, 3 weeks after application
Procedure, shortened: (§1)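 Plants were raised from seed in a greenhouse (25° C. to 30° C.) after sowing in a plastic box of sterilized diluvial soil.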

Lolium multiflorum Lam. = experiment: Test Example 4: herbicidal effect by soil treatment (symbol K); conditions: application herbicide amount 320 g/ha
Procedure, shortened: (§2)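 Seeds were sown in sterilized diluvial soil, covered with about 1.5 cm of soil, and the soil surface was sprayed with a water-diluted emulsion of the compound at a predetermined rate. Plants grew in a greenhouse at 25° C. to 30° C.; effects were scored visually 3 weeks after application.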

rice plant = experiment: Test Example 5: effect on crop by foliage application, plastic box (symbol b); conditions: 320 g/ha, 3 weeks after application
Procedure, shortened: as §1

Setaria viridis = experiment: Test Example 5: herbicidal effect by foliage application, plastic box (symbol G); conditions: 320 g/ha, 3 weeks after application
Procedure, shortened: (§3)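 Effect is rated 3 weeks after a foliar spray of water-diluted emulsion concentrate at a predetermined herbicide amount. Plants had grown 14 days in a 25° C. to 30° C. greenhouse from seed in sterilized diluvial soil.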

Cyperus difformis = experiment: Test Example 3: herbicidal effect by foliage application, Wagner pot (symbol E); conditions: application herbicide amount 320 g/ha
Procedure, shortened: (§4)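 The compound, formulated as an emulsion and diluted with water to a predetermined rate, is applied uniformly to leaves of two-week-old seedlings growing in submerged alluvial soil at 25–30 °C. Rice is included. Each plant is assessed 3 weeks later using defined criteria.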

Leptochloa chinensis = experiment: Test Example 3: herbicidal effect by foliage application, Wagner pot (symbol D); conditions: application herbicide amount 320 g/ha
Procedure, shortened: as §4

Alopecurus myosuroides = experiment: Test Example 5: herbicidal effect by foliage application, plastic box (symbol J); conditions: 320 g/ha, 3 weeks after application
Procedure, shortened: as §3

Digitaria ciliaris = experiment: Test Example 4: herbicidal effect by soil treatment (symbol F); conditions: application herbicide amount 320 g/ha
Procedure, shortened: as §2

rice = experiment: Test Example 4: effect on crop by soil treatment (symbol b); conditions: application herbicide amount 320 g/ha
Procedure, shortened: (§5)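 Grown at 25° C. to 30° C. in a greenhouse, the crops came from seed sown spot-wise in sterilized diluvial soil under roughly 1.5 cm of covering soil.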

Scirpus juncoides = experiment: Test Example 1: herbicidal activity, application before weed generation in submerged conditions (symbol B); conditions: application herbicide amount 320 g/ha
Procedure, shortened: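 0–5 visual score, 3 wk post-application. Submerged pots, alluvial soil, water 4 cm; seeds sown mixed, rice at 2.5 leaves transplanted. Emulsion diluted to predetermined dose, applied to water surface at sowing. 25–30 °C greenhouse.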

Chenopodium album = experiment: Test Example 5: herbicidal effect by foliage application, plastic box (symbol O); conditions: 320 g/ha, 3 weeks after application
Procedure, shortened: as §3

beet = experiment: Test Example 4: effect on crop by soil treatment (symbol f); conditions: application herbicide amount 320 g/ha
Procedure, shortened: as §5

Stellaria media = experiment: Test Example 5: herbicidal effect by foliage application, plastic box (symbol P); conditions: 320 g/ha, 3 weeks after application
Procedure, shortened: as §3

Veronica persica = experiment: Test Example 5: herbicidal effect by foliage application, plastic box (symbol R); conditions: 320 g/ha, 3 weeks after application
Procedure, shortened: as §3

[1] = tested on: Echinochloa crus-galli var. crus-galli; experiment: Test Example 4: herbicidal effect by soil treatment (symbol H); conditions: application herbicide amount 320 g/ha
Procedure, shortened: as §2

Abutilon theophrasti = experiment: Test Example 5: herbicidal effect by foliage application, plastic box (symbol M); conditions: 320 g/ha, 3 weeks after application
Procedure, shortened: as §3

Amaranthus retroflexus = experiment: Test Example 4: herbicidal effect by soil treatment (symbol N); conditions: application herbicide amount 320 g/ha
Procedure, shortened: as §2

SMILES: C=Cc1cc(C)c(C2=C(O)CC(CC(C)=NOC)C2=O)c(C)c1 (mixture of isomers) [6-031]
- d: soybean, effect on crop grade (soybean): 0 (Herbicidal ratio of 5% or lower (almost no effect))
- K: Lolium multiflorum Lam., herbicidal effect grade (Lolium multiflorum Lam.): 3 (Herbicidal ratio of 40% or higher and lower than 70%)
- b: directly sowed rice plant, effect on crop grade (rice plant): 5 (Herbicidal ratio of 90% or more (almost completely withered))
- G: Setaria viridis, herbicidal effect grade (Setaria viridis): 5 (Herbicidal ratio of 90% or more (almost completely withered))
- herbicidal effect on E, grade 0-5 (Cyperus difformis): 2 (Herbicidal ratio of 20% or higher and lower than 40%)
- herbicidal effect on D (Leptochloa chinensis), grade 0-5 (Leptochloa chinensis): 2 (Herbicidal ratio of 20% or higher and lower than 40%)
- J: Alopecurus myosuroides, herbicidal effect grade (Alopecurus myosuroides): 5 (Herbicidal ratio of 90% or more (almost completely withered))
- F: Digitaria ciliaris, herbicidal effect grade (Digitaria ciliaris): 0 (Herbicidal ratio of 5% or lower (almost no effect))
- b: directly sowed rice plant, effect on crop grade (rice): 0 (Herbicidal ratio of 5% or lower (almost no effect))
- Herbicidal effect grade, B: Scirpus juncoides (Scirpus juncoides): 0 (Herbicidal ratio of 5% or lower (almost no effect))
- O: Chenopodium album, herbicidal effect grade (Chenopodium album): 3 (Herbicidal ratio of 40% or higher and lower than 70%)
- f: beet, effect on crop grade (beet): 0 (Herbicidal ratio of 5% or lower (almost no effect))
- P: Stellaria media, herbicidal effect grade (Stellaria media): 0 (Herbicidal ratio of 5% or lower (almost no effect))
- R: Veronica persica, herbicidal effect grade (Veronica persica): 1 (Herbicidal ratio of 5% or higher and lower than 20%)
- H: Echinochloa crus-galli var. crus-galli, herbicidal effect grade [1]: 0 (Herbicidal ratio of 5% or lower (almost no effect))
- M: Abutilon theophrasti, herbicidal effect grade (Abutilon theophrasti): 2 (Herbicidal ratio of 20% or higher and lower than 40%)
- N: Amaranthus retroflexus, herbicidal effect grade (Amaranthus retroflexus): 4 (Herbicidal ratio of 70% or higher and lower than 90%)

SMILES: CON=C(C)CC1CC(OCCSC)=C(c2c(C)cc(C)cc2C)C1=O (stereo not drawn) [1-011]
- d: soybean, effect on crop grade (soybean): 0 (Herbicidal ratio of 5% or lower (almost no effect))
- K (Lolium multiflorum Lam.) herbicidal effect grade (Lolium multiflorum Lam.): 0 (Herbicidal ratio of 5% or lower (almost no effect))
- b: directly sowed rice plant, effect on crop grade (rice plant): 2 (Herbicidal ratio of 20% or higher and lower than 40%)
- G: Setaria viridis, herbicidal effect grade (Setaria viridis): 0 (Herbicidal ratio of 5% or lower (almost no effect))
- herbicidal effect on E, grade 0-5 (Cyperus difformis): 0 (Herbicidal ratio of 5% or lower (almost no effect))
- herbicidal effect on D (Leptochloa chinensis), grade 0-5 (Leptochloa chinensis): 5 (Herbicidal ratio of 90% or more (almost completely withered))
- J: Alopecurus myosuroides, herbicidal effect grade (Alopecurus myosuroides): 4 (Herbicidal ratio of 70% or higher and lower than 90%)
- F (Digitaria ciliaris) herbicidal effect grade (Digitaria ciliaris): 0 (Herbicidal ratio of 5% or lower (almost no effect))
- b (directly sowed rice plant) effect on crop grade (rice): 0 (Herbicidal ratio of 5% or lower (almost no effect))
- Herbicidal effect grade, B: Scirpus juncoides (Scirpus juncoides): 0 (Herbicidal ratio of 5% or lower (almost no effect))
- O: Chenopodium album, herbicidal effect grade (Chenopodium album): 0 (Herbicidal ratio of 5% or lower (almost no effect))
- f (beet) effect on crop grade (beet): 0 (Herbicidal ratio of 5% or lower (almost no effect))
- R: Veronica persica, herbicidal effect grade (Veronica persica): 0 (Herbicidal ratio of 5% or lower (almost no effect))
- H (Echinochloa crus-galli var. crus-galli) herbicidal effect grade [1]: 0 (Herbicidal ratio of 5% or lower (almost no effect))
- M: Abutilon theophrasti, herbicidal effect grade (Abutilon theophrasti): 0 (Herbicidal ratio of 5% or lower (almost no effect))
- N (Amaranthus retroflexus) herbicidal effect grade (Amaranthus retroflexus): 0 (Herbicidal ratio of 5% or lower (almost no effect))

SMILES: CON=C(C)CC1CC(OCC#N)=C(c2c(C)cc(C)cc2C)C1=O (stereo not drawn) [1-013]
- d: soybean, effect on crop grade (soybean): 0 (Herbicidal ratio of 5% or lower (almost no effect))
- K (Lolium multiflorum Lam.) herbicidal effect grade (Lolium multiflorum Lam.): 0 (Herbicidal ratio of 5% or lower (almost no effect))
- b: directly sowed rice plant, effect on crop grade (rice plant): 2 (Herbicidal ratio of 20% or higher and lower than 40%)
- G: Setaria viridis, herbicidal effect grade (Setaria viridis): 0 (Herbicidal ratio of 5% or lower (almost no effect))
- herbicidal effect on E, grade 0-5 (Cyperus difformis): 0 (Herbicidal ratio of 5% or lower (almost no effect))
- herbicidal effect on D (Leptochloa chinensis), grade 0-5 (Leptochloa chinensis): 2 (Herbicidal ratio of 20% or higher and lower than 40%)
- J: Alopecurus myosuroides, herbicidal effect grade (Alopecurus myosuroides): 4 (Herbicidal ratio of 70% or higher and lower than 90%)
- F (Digitaria ciliaris) herbicidal effect grade (Digitaria ciliaris): 0 (Herbicidal ratio of 5% or lower (almost no effect))
- b (directly sowed rice plant) effect on crop grade (rice): 0 (Herbicidal ratio of 5% or lower (almost no effect))
- Herbicidal effect grade, B: Scirpus juncoides (Scirpus juncoides): 0 (Herbicidal ratio of 5% or lower (almost no effect))
- O: Chenopodium album, herbicidal effect grade (Chenopodium album): 0 (Herbicidal ratio of 5% or lower (almost no effect))
- f (beet) effect on crop grade (beet): 0 (Herbicidal ratio of 5% or lower (almost no effect))
- P: Stellaria media, herbicidal effect grade (Stellaria media): 0 (Herbicidal ratio of 5% or lower (almost no effect))
- R: Veronica persica, herbicidal effect grade (Veronica persica): 0 (Herbicidal ratio of 5% or lower (almost no effect))
- H (Echinochloa crus-galli var. crus-galli) herbicidal effect grade [1]: 0 (Herbicidal ratio of 5% or lower (almost no effect))
- M: Abutilon theophrasti, herbicidal effect grade (Abutilon theophrasti): 0 (Herbicidal ratio of 5% or lower (almost no effect))
- N (Amaranthus retroflexus) herbicidal effect grade (Amaranthus retroflexus): 0 (Herbicidal ratio of 5% or lower (almost no effect))

SMILES: CON=C(C)CC1CC(OC(=O)OC)=C(c2c(C)cc(C)cc2C)C1=O (stereo not drawn) [1-014]
- d: soybean, effect on crop grade (soybean): 5 (Herbicidal ratio of 90% or more (almost completely withered))
- K (Lolium multiflorum Lam.) herbicidal effect grade (Lolium multiflorum Lam.): 5 (Herbicidal ratio of 90% or more (almost completely withered))
- b: directly sowed rice plant, effect on crop grade (rice plant): 5 (Herbicidal ratio of 90% or more (almost completely withered))
- G: Setaria viridis, herbicidal effect grade (Setaria viridis): 5 (Herbicidal ratio of 90% or more (almost completely withered))
- herbicidal effect on E, grade 0-5 (Cyperus difformis): 5 (Herbicidal ratio of 90% or more (almost completely withered))
- herbicidal effect on D (Leptochloa chinensis), grade 0-5 (Leptochloa chinensis): 5 (Herbicidal ratio of 90% or more (almost completely withered))
- J: Alopecurus myosuroides, herbicidal effect grade (Alopecurus myosuroides): 5 (Herbicidal ratio of 90% or more (almost completely withered))
- F (Digitaria ciliaris) herbicidal effect grade (Digitaria ciliaris): 5 (Herbicidal ratio of 90% or more (almost completely withered))
- b (directly sowed rice plant) effect on crop grade (rice): 4 (Herbicidal ratio of 70% or higher and lower than 90%)
- Herbicidal effect grade, B: Scirpus juncoides (Scirpus juncoides): 5 (Herbicidal ratio of 90% or more (almost completely withered))
- O: Chenopodium album, herbicidal effect grade (Chenopodium album): 3 (Herbicidal ratio of 40% or higher and lower than 70%)
- R: Veronica persica, herbicidal effect grade (Veronica persica): 3 (Herbicidal ratio of 40% or higher and lower than 70%)
- H (Echinochloa crus-galli var. crus-galli) herbicidal effect grade [1]: 5 (Herbicidal ratio of 90% or more (almost completely withered))
- M: Abutilon theophrasti, herbicidal effect grade (Abutilon theophrasti): 5 (Herbicidal ratio of 90% or more (almost completely withered))

SMILES: CCCC(=O)C(C(=O)OC)C1CC(O)=C(c2c(C)cc(C)cc2C)C1=O (stereo not drawn) [2-020]
- d: soybean, effect on crop grade (soybean): 0 (Herbicidal ratio of 5% or lower (almost no effect))
- K: Lolium multiflorum Lam., herbicidal effect grade (Lolium multiflorum Lam.): 4 (Herbicidal ratio of 70% or higher and lower than 90%)
- b: directly sowed rice plant, effect on crop grade (rice plant): 4 (Herbicidal ratio of 70% or higher and lower than 90%)
- G: Setaria viridis, herbicidal effect grade (Setaria viridis): 5 (Herbicidal ratio of 90% or more (almost completely withered))
- herbicidal effect on E, grade 0-5 (Cyperus difformis): 0 (Herbicidal ratio of 5% or lower (almost no effect))
- herbicidal effect on D (Leptochloa chinensis), grade 0-5 (Leptochloa chinensis): 2 (Herbicidal ratio of 20% or higher and lower than 40%)
- J: Alopecurus myosuroides, herbicidal effect grade (Alopecurus myosuroides): 4 (Herbicidal ratio of 70% or higher and lower than 90%)
- F: Digitaria ciliaris, herbicidal effect grade (Digitaria ciliaris): 5 (Herbicidal ratio of 90% or more (almost completely withered))
- b: directly sowed rice plant, effect on crop grade (rice): 5 (Herbicidal ratio of 90% or more (almost completely withered))
- Herbicidal effect grade, B: Scirpus juncoides (Scirpus juncoides): 0 (Herbicidal ratio of 5% or lower (almost no effect))
- O: Chenopodium album, herbicidal effect grade (Chenopodium album): 0 (Herbicidal ratio of 5% or lower (almost no effect))
- f: beet, effect on crop grade (beet): 0 (Herbicidal ratio of 5% or lower (almost no effect))
- P: Stellaria media, herbicidal effect grade (Stellaria media): 0 (Herbicidal ratio of 5% or lower (almost no effect))
- R: Veronica persica, herbicidal effect grade (Veronica persica): 0 (Herbicidal ratio of 5% or lower (almost no effect))
- H: Echinochloa crus-galli var. crus-galli, herbicidal effect grade [1]: 4 (Herbicidal ratio of 70% or higher and lower than 90%)
- M: Abutilon theophrasti, herbicidal effect grade (Abutilon theophrasti): 0 (Herbicidal ratio of 5% or lower (almost no effect))
- N: Amaranthus retroflexus, herbicidal effect grade (Amaranthus retroflexus): 1 (Herbicidal ratio of 5% or higher and lower than 20%)
